Test results from article PMC12123411, “Structural insight into the novel Thermus thermophilus SPOUT methyltransferase RlmR catalysing Um2552 formation in the 23S rRNA A-loop: a case of convergent evolution” (Nucleic Acids Research, 2025).
Blank lines part the entries; values can stand above or below the molecule they belong to.

Legend:
[1] = target: T1, RlmR (TTC1712) (Thermus thermophilus, UniProt Q72GY4); test: X-ray crystal structure (co-crystal with RNA and SAM); also radiolabelled methyl transfer assay; type: binding; conditions: co-substrate U2552 59-mer RNA; SAM kept in the dimer site without RNA, turned over to SAH in the RNA-bound site; assay pH 8.0, 5 mM MgCl2, 50 °C, labelled compound
T1 construct: gene TT_C1712; full-length ORF (about 260 residues), N-terminal His-tag, pET28, codon-optimised gene, expressed in E. coli Rosetta; homodimer; HB8 orthologue TTHA0275 differs by three residues
T1 sequence (Q72GY4 1-260): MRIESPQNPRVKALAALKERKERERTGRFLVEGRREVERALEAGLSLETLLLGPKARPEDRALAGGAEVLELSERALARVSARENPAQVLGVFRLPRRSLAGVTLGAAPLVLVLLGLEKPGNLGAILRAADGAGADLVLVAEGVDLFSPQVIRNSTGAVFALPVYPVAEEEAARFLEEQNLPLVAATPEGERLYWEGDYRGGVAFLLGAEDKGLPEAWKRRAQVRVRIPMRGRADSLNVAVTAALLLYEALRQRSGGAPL

[2] = target: RlmR (TTC1712), 23S rRNA Um2552 SPOUT methyltransferase of Thermus thermophilus HB27 (Thermus thermophilus HB27); test: SEC; gel filtration chromatography of purified RlmR (Supplementary Fig. S4)
[3] = target: RlmR (TTC1712), 23S rRNA Um2552 SPOUT methyltransferase of Thermus thermophilus HB27 (Thermus thermophilus HB27); test: crystal structure; RlmR apoenzyme crystallised under oil at 20°C (100 mM Na citrate pH 4, 20% PEG6000, 1 M LiCl); asymmetric unit of two dimers; the same dimer holds the 59-mer RNA in the complexes with SAH or SAM
[4] = target: T1, RlmR (TTC1712); test: X-ray crystal structure, […] Å; type: binding; conditions: ternary complex with U2552 59-mer A-loop RNA; SAH in bent conformation; SAM site at the trefoil knot; pH 4.5

Molecule: C[S+](CC[C@H](N)C(=O)O)C[C@H]1O[C@@H](n2cnc3c(N)ncnc32)[C@H](O)[C@@H]1O (stereo partly shown) [SAM, S-adenosylmethionine]
- X-ray crystal structure (co-crystal with RNA and SAM); also radiolabelled methyl [1]: in the other catalytic site of the dimer, not hosting the substrate, the co-substrate remains present as SAM

- stoichiometry N [2]: 2
- stoichiometry N [3]: 2
Molecule: RlmR (TTC1712), 23S rRNA Um2552 SPOUT methyltransferase of Thermus thermophilus HB27 (enzyme)

Molecule: Nc1ncnc2c1ncn2[C@@H]1O[C@H](CSCC[C@H](N)C(=O)O)[C@@H](O)[C@H]1O [SAH, S-adenosyl-homocysteine]
- X-ray crystal structure, 1.9 Å [4]: crystal structure of RlmR in complex with the 59-mer RNA and SAH to a resolution
